Measured values published in US20190091339A1, “ABIRATERONE-CYCLIC OLIGOMER PHARMACEUTICAL FORMULATIONS AND METHODS OF FORMATION AND ADMINISTRATION THEREOF” (DISPERSOL TECHNOLOGIES, LLC, priority 2017, published 2019).
“And” between values parts separate entries of the source, which are not always exact repeats. Identical values can stand only once.

How the values were obtained:
[1] = test system: prostate specific antigen (PSA); settings: 1,000 mg abiraterone acetate daily, well controlled trials; cited from earlier work
[2] = test system: 22RV1 human prostate tumor xenograft; assay: Anti-tumor study in 22RV1 xenograft mice; format: in vivo, CB.17 SCID mice; settings: for Tumor Volume Day 26, individual mice: QD to End, Oral Gavage; for % T/C (mean tumor volume) / % T/C (median tumor volume) / Mean Tumor Volume / Median Tumor Volume: Day 26
Experimental: The objective of the xenograft mice study was to determine the anti-tumor activity of a composition made per Example 2.4 as a single agent versus abiraterone acetate in the 22RV1 human prostate tumor xenograft model. The study was conducted in CB.17 SCID mice injected with 22RV1 cells (5×10^6 cells/mouse) in the subcutaneous right flank. Tumors were grown to a mean tumor size between 100 and 150 mm^3 prior to study enrollment. The mice were dosed with the test article and reference once-daily by oral gavage per Table 12. Tumor volume was measured throughout the study. The study was terminated on day 26 when mean tumor volume of two experimental groups reached ≥1500 mm^3.

[3] = Abiraterone Acetate 22.4 mg/kg QD PO
[4] = Abiraterone Acetate 100 mg/kg QD PO

SMILES: CC(=O)O[C@H]1CC[C@@]2(C)C(=CC[C@@H]3[C@@H]2CC[C@]2(C)C(c4cccnc4)=CC[C@@H]32)C1 [Abiraterone Acetate, (3β)-17(3-pyridinyl)androsta-5,16-dien-3-ol acetate]
- treated patients achieving target PSA reductions [1]: up to 60%
- Tumor Volume Day 26, individual mice ([2]; Abiraterone Acetate Dose #1, 22.4 mg/kg): 1,062 mm^3 and 1,389 mm^3 and 808 mm^3 and 1,555 mm^3 and 2,107 mm^3 and 726 mm^3 and 1,606 mm^3 and 1,119 mm^3 and 1,127 mm^3 and 1,143 mm^3
- Tumor Volume Day 26, individual mice ([2]; Abiraterone Acetate Dose #2, 100 mg/kg): 1,609 mm^3 and 1,639 mm^3 and 1,084 mm^3 and 1,490 mm^3 and 1,429 mm^3 and 1,453 mm^3 and 1,152 mm^3 and 1,568 mm^3 and 1,287 mm^3 and 2,787 mm^3
- % T/C (mean tumor volume) [2, 3]: 84.1%
- % T/C (median tumor volume) [2, 3]: 72.8%
- Mean Tumor Volume [2, 3]: 1264.2 mm^3
- Median Tumor Volume [2, 3]: 1135.0 mm^3
- % T/C (mean tumor volume) [2, 4]: 103.1%
- % T/C (median tumor volume) [2, 4]: 94.4%
- Mean Tumor Volume [2, 4]: 1549.4 mm^3
- Median Tumor Volume [2, 4]: 1471.5 mm^3
- tumor growth relative to vehicle control ([2]; once-daily oral gavage, low and high doses, 22RV1 xenograft mice): did not result in statistically different tumor growth
